The subject of assay [1] is AMPA. The settings on record: cited from earlier work.
The subject of assay [2] is AMPA and kainate. The assay can be described thus: AMPA and kainate antagonism (overall conclusion from the binding and selectivity tests). The procedure:
(§1) The experiment was carried out according to the method of Murphy et al. [D. E. Murphy, E. W. Snowhill, M. Williams: Neurochem. Res. 12, 775-782 (1987)] using a membrane specimen isolated from rat brain. The binding of kainate labeled with tritium on a rat cortex specimen was measured according to the method of Honore et al. [T. Honore, J. Dejer and M. Nielsen: Neurosci. Lett. 65, 48-52 (1986)].
The experiment was carried out according to the method of Foster et al. [A. Foster and E. H. F. Wong: Brit. J. Pharmacol. 91, 403-409, (1987)]. When applying the CGS 19755 receptor binding test the method of Murphy et al. [D. E. Murphy, A. J. Hutchison, S. D. Hurt, M. Williams and M. A. Sills: Brit. J. Pharmacol. 95, 932-938 (1988)] was applied.

Assay [3] concerns the target NMDA (CGS 19755 receptor). Briefly: Selectivity: CGS 19755 receptor binding test. Here is the method:
The experiment was carried out according to the method of Foster et al. [A. Foster and E. H. F. Wong: Brit.

For assay [4], the system named is AMPA recognition site. The assay can be described thus: ^3H-AMPA binding (radioligand competitive binding assay). Further details: species or system rat. To be noted: compared with DNQX. Here is the method:
(§2) 1. ^3 H-AMPA and ^3 H-kainate binding (radioligand competitive binding assay)
as §1

The subject of assay [5] is kainate recognition site. The assay can be described thus: ^3H-kainate binding (radioligand competitive binding assay). Also noted: species or system rat. The settings on record: compared with DNQX. Here is the method: as §2, §1

Entries after “also recorded” stand apart in the source; their conditions may differ.

Regarding `N#Cc1cc2[nH]c(=O)c(=O)[nH]c2cc1[N+](=O)[O-]` [CNQX, 6-cyano-7-nitro-quinoxaline-2,3-dione], in assay [1], the “AMPA antagonizing property, in words” value is on record as “selective AMPA antagonizing property”.
On to `O=c1[nH]c2cc([N+](=O)[O-])c(S(=O)(=O)N(CCO)CCO)cc2[nH]c1=O` [Example 24, N,N-bis(2-Hydroxyethyl)-1,2,3,4-tetrahydro-7-nitro-2,3-dioxo-6-quinoxaline sulfonamide], for which the “AMPA and kainate antagonism, in words” value in assay [2] was “selective AMPA and kainate antagonists”. In addition, the “Binding of ^3H-CGS-19755 Ki” value in assay [3] is reported as “does not "converge"”.
Consider `O=c1[nH]c2cc([N+](=O)[O-])c([N+](=O)[O-])cc2[nH]c1=O` [DNQX, 6,7-dinitroquinoxaline-2,3-dione, reference compound], for which the “AMPA antagonizing property, in words” value in assay [1] is reported as “selective AMPA antagonizing property”. For the same compound, the “Binding of ^3H-CGS-19755 Ki” value in assay [3] is “does not "converge"”.
Consider `O=c1[nH]c2cc([N+](=O)[O-])c(S(=O)(=O)NCCN3CCCCC3)cc2[nH]c1=O` [Example 17, 1,2,3,4-Tetrahydro-7-nitro-2,3-dioxo-N-(2-piperidinoethyl)-6-quinoxaline sulfonamide], for which the “displacement of labeled AMPA, in words” value in assay [4] is reported as “affinity similar to that of DNQX; also recorded: good reversible ligand”. Also, in assay [2], the “AMPA and kainate antagonism, in words” value is “selective AMPA and kainate antagonists”. The “Binding of ^3H-CGS-19755 Ki” value in assay [3] is on record as “not "converge"”. The “displacement of labeled kainate, in words” value in assay [5] is reported as “affinity similar to that of DNQX; also recorded: good reversible ligand”.

The values above are taken from patent publication US5912245A, “Acid amide derivatives and process for the preparation thereof” (Egis Gyogyszergyar RT., priority 1994, dated 1999).
